Measured values from patent US4879376A, “Triterpene saponins having anti-inflammatory, mucolytic and antiedemic activities, process for the preparation thereof and pharmaceutical compositions containing them” (priority 1986, dated 1989).

What was measured:
phenylquinone writhing = test: Analgesic activity (phenylquinone writhing test); type: in vivo; conditions: mouse
Description: (c) Analgesic activity (phenylguinone writhing test)

[1] = system: carrageenin oedema on rat paw; test: Antioedema activity (carrageenin oedema test); type: in vivo
Method: (b) Antioedema activity (carrageenin oedema test) Antioedema activity was evaluated in the test of carrageenin oedema on rat paw, after oral and topical administration.

mucus excretion = test: Mucolytic / expectorant activity (sodium fluorescein excretion); type: in vivo; conditions: mouse
rat = conditions: in vivo, po
Description: | ^a maximal nondiarrhoic dose

Question: For CC(=O)Oc1ccccc1C(=O)O [ASA, acetylsalicylic acid], which “% Variation in comparison with controls” value (phenylquinone writhing; 50 mg/kg os) is on record?
Answer: Its value is -31%.

Question: What about the “% Variation in comparison with controls” value (phenylquinone writhing; 100 mg/kg os) of the same molecule?
Answer: The value was -32%.

Question: What about the “% change in paw oedema versus controls” value ([1]; 1 hour, 200 mg/kg os) of the same molecule?
Answer: Its value is -51%.

Question: And the “% change in paw oedema versus controls” value ([1]; 2 hours, 200 mg/kg os)?
Answer: The value was -39%.

Question: What about the “% change in paw oedema versus controls” value ([1]; 3 hours, 200 mg/kg os) of the same molecule?
Answer: Its value is -52%.

Question: What about the “% change in paw oedema versus controls” value ([1]; 4 hours, 200 mg/kg os) of the same molecule?
Answer: Its value is -45%.

Question: And the “% change in paw oedema versus controls” value ([1]; 5 hours, 200 mg/kg os)?
Answer: The value was -42%.

Question: For CN(Cc1cc(Br)cc(Br)c1N)C1CCCCC1 [Bromhexin, Bromhexine], which “% increase of sodium fluorescein excretion in comparison with controls” value (mucus excretion; 75 × 1 mg/kg) is on record?
Answer: The value was “+48%”.

Question: For CCCCC1C(=O)N(c2ccccc2)N(c2ccccc2)C1=O [Phenylbutazone], which “% change in paw oedema versus controls” value ([1]; 1 hour, 100 mg/kg os) is on record?
Answer: The value was -38%.

Question: And the “% change in paw oedema versus controls” value ([1]; 2 hours, 100 mg/kg os)?
Answer: Its value is -30%.

Question: What about the “% change in paw oedema versus controls” value ([1]; 3 hours, 100 mg/kg os) of the same molecule?
Answer: The value was -58%.

Question: And the “% change in paw oedema versus controls” value ([1]; 4 hours, 100 mg/kg os)?
Answer: The value was -54%.

Question: What about the “% change in paw oedema versus controls” value ([1]; 5 hours, 100 mg/kg os) of the same molecule?
Answer: Its value is -47%.

Question: CC1=CCC(C(C)(C)O)CC1O (centres unmarked) [Sobrerol] was tested. Which “% increase of sodium fluorescein excretion in comparison with controls” value (mucus excretion; 150 × 1 mg/kg) did it give?
Answer: The value was “+67%”.

Question: Which “% change in paw oedema versus controls” value ([1]; 1 hour, 50 mg/kg os (maximal nondiarrhoic dose)) does the source give for Escine here?
Answer: The value was -39%.

Question: And the “% change in paw oedema versus controls” value ([1]; 2 hours, 50 mg/kg os (maximal nondiarrhoic dose))?
Answer: The value was -44%.

Question: And the “% change in paw oedema versus controls” value ([1]; 3 hours, 50 mg/kg os (maximal nondiarrhoic dose))?
Answer: Its value is -51%.

Question: What about the “% change in paw oedema versus controls” value ([1]; 4 hours, 50 mg/kg os (maximal nondiarrhoic dose)) of the same molecule?
Answer: Its value is -49%.

Question: What about the “% change in paw oedema versus controls” value ([1]; 5 hours, 50 mg/kg os (maximal nondiarrhoic dose)) of the same molecule?
Answer: The value was -35%.

Question: What about the maximal nondiarrhoic dose (rat) of the same molecule?
Answer: Its maximal nondiarrhoic dose is 50 mg/kg.
